# Measured values taken from ChEMBL document CHEMBL4418265, “Piperidinylpyrazolopyridine derivatives” (2016).
# Tested on: Cynomolgus monkey
# Test: Increase in HDL-C level in cynomolgus monkey plasma at 10 mg/kg, po administered as single dose measured after 1 or 7 days by HPLC method
# Format: functional, Macaca fascicularis
structure (smiles),measurement,value
"O=C1CC(O)(C(F)(F)F)c2c(C3CCN(c4ccc(OC(F)F)cc4)CC3)n[nH]c2N1 (single isomer, unassigned)",Activity,644%
